According to US20260365611A1, “CRYSTALLINE SALTS OF 2-PHENYL-2-AMINOCYCLOHEXAN-1-ONE DERIVATIVES” (priority 2023, published 2026):

Test: Polymorph screening (slurry, anti-solvent addition, thermal cycling, slow evaporation, vapor diffusion, polymer-induced crystallization)
Type: physicochemical
Set-up: key: CL: Clear Liquid; HCl-1: Form 1 polymorph; HCl-2: Mixture of Polymorphs of Form 1 and Form 2
Protocol: Based on the approximate solubility of the product of Example 1 (1R HCl Form 1), screening experiments were conducted to find potential additional crystalline forms (polymorphs) using different screening techniques including, but not limited to, slow evaporation, slow cooling, anti-solvent addition, slurry at RT and 50 °C, temperature cycling, diffusion (solid and liquid), and polymer induced crystallization. The various procedures are outlined hereinbelow.
~40 mg of the product of Example 1 was slurried in 0.5-1.0 mL of different solvents in a 4.0 mL glass vial using a magnetic stirrer at RT. The solids in the slurry were stirred for 7 days.
~40 mg of the product of Example 1 was slurried in 0.5-1.0 mL of different solvents in a 4.0 mL glass vial using a magnetic stirrer at 50 °C. […]. The solids in the slurry were stirred for 3 days.
~40 mg of the product of Example 1 was dissolved in a solvent to create a saturated solution and an anti-solvent was added up to 10 volume ratios. The solids, if any, were collected.
~40 mg of the product of Example 1 was dissolved in a solvent, heated, and cooled following temperature cycles of 45 °C/1h→35 °C/4h→25 °C/4h→15 °C/4h→5 °C/4 h for 7 days. The obtained solids (if any) were collected after 7 days.
~40 mg of the product of Example 1 was dissolved in a solvent in a vial to create a saturated solution. The vial opening was covered with parafilm or aluminum foil (2-holes). The vials were kept at RT under the hood. The obtained solids (if any) were collected after 7 days.
~40 mg of the product of Example 1 was dissolved in a solvent to create a saturated solution in a 4.0 mL glass vial. The vial was placed in a 20 mL glass vial containing an anti-solvent. The obtained solids were collected after 7-10 days.
~40 mg of the product of Example 1 was kept in a 4.0 mL glass vial; this vial was placed in a 20 mL glass vial containing a solvent. The solids were collected after 7-10 days.
~40 mg of the product of Example 1 and 2.0 mg of the listed polymer were added to a solvent and kept stirring at RT. The solids in slurry or precipitated solids from solution were collected after 7 days.

SMILES: CN[C@@]1(c2ccc(F)cc2)CCCCC1=O.Cl [1R HCl, (R)-2-(4-fluorophenyl)-2-(methylamino)cyclohexan-1-one hydrochloride]
- Crystal Form (anti-solvent addition, DCM / 1,4-dioxane): CL
- Crystal Form (anti-solvent addition, DCM / Acetone): HCl-1
- Crystal Form (anti-solvent addition, DCM / CPME): HCl-1
- Crystal Form (anti-solvent addition, DCM / EtOAc): HCl-1
- Crystal Form (anti-solvent addition, DCM / Hexane): HCl-1
- Crystal Form (anti-solvent addition, IPA / 1,4-dioxane): CL
- Crystal Form (anti-solvent addition, IPA / Acetone): CL
- Crystal Form (anti-solvent addition, IPA / Heptane): HCl-1
- Crystal Form (anti-solvent addition, IPA / IPAc): HCl-2
- Crystal Form (anti-solvent addition, IPA / MTBE): HCl-2
- Crystal Form (anti-solvent addition, MeOH / Acetone): CL
- Crystal Form (anti-solvent addition, MeOH / EtOAc): HCl-1
- Crystal Form (anti-solvent addition, MeOH / MTBE): HCl-1
- Crystal Form (anti-solvent addition, MeOH / THF): HCl-1
- Crystal Form (anti-solvent addition, MeOH / Toluene): HCl-2
- Crystal Form (anti-solvent addition, Water / 1,4-dioxane): CL
- Crystal Form (anti-solvent addition, Water / ACN): CL
- Crystal Form (anti-solvent addition, Water / THF): CL
- Crystal Form (liquid vapor diffusion RT, DMSO / Acetone): CL
- Crystal Form (liquid vapor diffusion RT, DMSO / EtOAc): CL
- Crystal Form (liquid vapor diffusion RT, DMSO / Toluene): CL
- Crystal Form (liquid vapor diffusion RT, MeOH / 2-MeTHF): CL
- Crystal Form (liquid vapor diffusion RT, MeOH / IPAc): CL
- Crystal Form (liquid vapor diffusion RT, MeOH / MTBE): CL
- Crystal Form (liquid vapor diffusion RT, NMP / 1,4-dioxane): CL
- Crystal Form (liquid vapor diffusion RT, NMP / Acetone): CL
- Crystal Form (liquid vapor diffusion RT, NMP / MTBE): HCl-1
- Crystal Form (polymer induced RT, ACN/H2O (9:1), PEO (Poloxamer 407)): gel
- Crystal Form (polymer induced RT, Acetone/DCM (9:1), PVP): HCl-2
- Crystal Form (polymer induced RT, Acetone/H2O (9:1), PVA): HCl-2
- Crystal Form (polymer induced RT, EtOH/Heptane (3/7), HPMC): HCl-1
- Crystal Form (polymer induced RT, MTBE/IPA (9:1), PVA): HCl-1
- Crystal Form (polymer induced RT, MeOH/H2O (9:1), PVP): gel
- Crystal Form (slow evaporation RT, 7 days, ACN): HCl-1
- Crystal Form (slow evaporation RT, 7 days, Acetone): HCl-1
- Crystal Form (slow evaporation RT, 7 days, DCM): HCl-2
- Crystal Form (slow evaporation RT, 7 days, DMF): CL
- Crystal Form (slow evaporation RT, 7 days, DMSO): CL
- Crystal Form (slow evaporation RT, 7 days, MeOH): gel
- Crystal Form (slow evaporation RT, 7 days, NMP): CL
- Crystal Form (slow evaporation RT, 7 days, Water): HCl-1
- Crystal Form (slow evaporation RT, 7 days, nPA): HCl-1
- Crystal Form (slurry 50 °C, 3 days, 1,4-dioxane): HCl-1
- Crystal Form (slurry 50 °C, 3 days, 2-MeTHF): HCl-1
- Crystal Form (slurry 50 °C, 3 days, ACN): HCl-1
- Crystal Form (slurry 50 °C, 3 days, Acetone/Toluene (1:1)): HCl-1
- Crystal Form (slurry 50 °C, 3 days, EtOAc): HCl-1
- Crystal Form (slurry 50 °C, 3 days, EtOH): HCl-1
- Crystal Form (slurry 50 °C, 3 days, IPA): HCl-1
- Crystal Form (slurry 50 °C, 3 days, IPAc): HCl-1
- Crystal Form (slurry 50 °C, 3 days, MEK): HCl-1
- Crystal Form (slurry 50 °C, 3 days, MIBK): HCl-1
- Crystal Form (slurry 50 °C, 3 days, MTBE): HCl-1
- Crystal Form (slurry 50 °C, 3 days, MeOH): HCl-1
- Crystal Form (slurry 50 °C, 3 days, THF/H2O (9:1)): gel
- Crystal Form (slurry 50 °C, 3 days, THF/n-Heptane (1:1)): HCl-1
- Crystal Form (slurry 50 °C, 3 days, Toluene): HCl-1
- Crystal Form (slurry 50 °C, 3 days, Water): HCl-1
- Crystal Form (slurry RT, 7 days, 1,4-dioxane): HCl-2
- Crystal Form (slurry RT, 7 days, ACN): HCl-2
- Crystal Form (slurry RT, 7 days, Acetone/H2O (aw = 0.2)): HCl-2
- Crystal Form (slurry RT, 7 days, Acetone/H2O (aw = 0.4)): HCl-2
- Crystal Form (slurry RT, 7 days, Acetone/H2O (aw = 0.6)): gel
- Crystal Form (slurry RT, 7 days, Acetone/H2O (aw = 0.8)): gel
- Crystal Form (slurry RT, 7 days, Acetone/Toluene (1:1)): HCl-1
- Crystal Form (slurry RT, 7 days, Anisole): HCl-1
- Crystal Form (slurry RT, 7 days, CPME): HCl-1
- Crystal Form (slurry RT, 7 days, EtOAc): HCl-1
- Crystal Form (slurry RT, 7 days, H2O): CL
- Crystal Form (slurry RT, 7 days, IPA): HCl-1
- Crystal Form (slurry RT, 7 days, IPAc): HCl-1
- Crystal Form (slurry RT, 7 days, MEK): HCl-1
- Crystal Form (slurry RT, 7 days, MIBK): HCl-1
- Crystal Form (slurry RT, 7 days, MTBE): HCl-1
- Crystal Form (slurry RT, 7 days, MeOH): HCl-1
- Crystal Form (slurry RT, 7 days, PEG): amorphous
- Crystal Form (slurry RT, 7 days, THF): HCl-2
- Crystal Form (slurry RT, 7 days, THF/n-Heptane (1:1)): HCl-1
- Crystal Form (slurry RT, 7 days, Toluene): HCl-1
- Crystal Form (solid vapor diffusion RT, 1,4-dioxane): HCl-1
- Crystal Form (solid vapor diffusion RT, 2-MeTHF): HCl-1
- Crystal Form (solid vapor diffusion RT, ACN): HCl-1
- Crystal Form (solid vapor diffusion RT, Acetone): HCl-1
- Crystal Form (solid vapor diffusion RT, DCM): CL
- Crystal Form (solid vapor diffusion RT, EtOAc): HCl-1
- Crystal Form (solid vapor diffusion RT, EtOH): CL
- Crystal Form (solid vapor diffusion RT, Hexane): HCl-1
- Crystal Form (solid vapor diffusion RT, MEK): HCl-1
- Crystal Form (solid vapor diffusion RT, MTBE): HCl-1
- Crystal Form (solid vapor diffusion RT, MeOH): CL
- Crystal Form (solid vapor diffusion RT, Toluene): HCl-1
- Crystal Form (thermal cycling, 7 days, ACN): HCl-1
- Crystal Form (thermal cycling, 7 days, DMSO): HCl-1
- Crystal Form (thermal cycling, 7 days, EtOH/acetone (3:7)): gel
- Crystal Form (thermal cycling, 7 days, EtOH/n-Heptane (3:7)): HCl-1
- Crystal Form (thermal cycling, 7 days, IPA): HCl-2
- Crystal Form (thermal cycling, 7 days, IPA/Toluene (3:7)): HCl-2
- Crystal Form (thermal cycling, 7 days, MeOH/IPAc (1:9)): HCl-1
